In the assay the target is CDK7 (Homo sapiens, UniProt P50613). In words: LANCE TR-FRET in vitro kinase assay (U-Light-MBP peptide, […] ATP, […] min; […] at […] min, […] at […] min); bioTHZ1 competition pull-down target occupancy in MOLM13 cells. The format is biochemical. (In general: Time-resolved FRET reads energy transfer from a long-lived donor to a nearby acceptor.)
Sequence of CDK7 (P50613 2-346): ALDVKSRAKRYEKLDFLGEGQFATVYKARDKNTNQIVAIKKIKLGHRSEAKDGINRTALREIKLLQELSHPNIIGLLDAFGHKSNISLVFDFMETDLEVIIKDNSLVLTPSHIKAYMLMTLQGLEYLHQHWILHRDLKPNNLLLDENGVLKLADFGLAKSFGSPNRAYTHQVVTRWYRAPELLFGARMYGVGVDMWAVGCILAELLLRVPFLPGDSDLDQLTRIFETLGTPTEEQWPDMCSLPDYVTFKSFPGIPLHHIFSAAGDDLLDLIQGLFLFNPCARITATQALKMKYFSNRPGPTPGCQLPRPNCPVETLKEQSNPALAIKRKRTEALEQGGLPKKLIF

Consider XL102, for which the concentration for half-maximal inhibition (IC50) (in general, the concentration that gives 50% inhibition) is 0.9 nM.

Values taken from paper PMC10386772, “Novel covalent CDK7 inhibitor potently induces apoptosis in acute myeloid leukemia and synergizes with Venetoclax” (Journal of Experimental & Clinical Cancer Research : CR, 2023).
